Series [1] deals with HCC2935 lung cancer cells. In words: Alamar Blue proliferation assay, HCC2935. As to conditions: HCC2935, 30 nM, 72 h, relative to NC miRNA (100%). The series is classed as cell-based, human. The text has this:
The inventors assessed the therapeutic effect of hsa-miR-126 for lung cancer by using 11 individual lung cancer cell lines. To measure cellular proliferation of lung cancer cells, the following non-small cell lung cancer (NSCLC) cells were used: cells derived from lung adenocarcinoma (A549, H1299, H522, H838, Calu-3, HCC827, HCC2935), cells derived from lung squamous cell carcinoma (H520, H226), cells derived from lung bronchioalveolar carcinoma (H1650), and cells derived from lung large cell carcinoma (H460). Synthetic hsa-miR-126 (Pre-miR™-hsa-miR-126, Ambion cat. no. AM17100) or negative control (NC) miRNA (Pre-miR™ microRNA Precursor Molecule-Negative Control #2; Ambion cat. no. AM17111) was delivered via lipid-based transfection into A549, H1299, H522, H838, Calu-3, HCC827, HCC2935, H520, H1650, and H460 cells, and via electroporation into H226 cells.
Lipid-based reverse transfections were carried out in triplicate according to a published protocol (Ovcharenko et al., 2005) and the following parameters: Cells (5,000-12,000 per 96 well), 0.1-0.2 μl Lipofectamine™ 2000 (cat. no. 11668-019, Invitrogen Corp., Carlsbad, Calif., USA) in 20 μl OptiMEM (Invitrogen), 30 nM final concentration of miRNA in 100 μl. […]

Series [2] concerns established H460 lung tumors. In words: Established H460 lung tumors, intratumoral injections. The series is classed as in vivo, NOD/SCID mice. As to conditions: H460, 6.25 μg intratumoral with siPORT amine on days 11, 14, 17. The text has this:
Delivery of hsa-miR-126 into human lung cancer cells prior to implantation into the animal inhibited the formation of lung tumor xenografts. […] To explore this possibility, each 3×10^6 human H460 non-small lung cancer cells were mixed with BD Matrigel™, (BD Biosciences; San Jose, Calif., USA; cat. no. 356237) in a 1:1 ratio and subcutaneously injected into the lower back of 23 NOD/SCID mice (Charles River Laboratories, Inc.; Wilmington, Mass., USA). Once animals developed palpable tumors (day 11 post xenograft implantation), a group of six animals received intratumoral injections of each 6.25 μg hsa-miR-126 (Dharmacon, Inc., Lafayette, Colo., USA) formulated with the lipid-based siPORT™ amine delivery agent (Ambion, Austin, Tex.; cat. no. AM4502) on days 11, 14 and 17. A control group of six animals received intratumoral injections of each 6.25 μg negative control miRNA (NC; Dharmacon, Lafayette, Colo.), following the same injection schedule that was used for hsa-miR-126. Given an average mouse weight of 20 g, this dose equals 0.3125 mg/kg. […] Caliper measurements were taken every 1-2 days, and tumor volumes were calculated using the formula, Volume=length×width×width/2, in which the length is greater than the width.

Series [3] relates to RWPE2 prostate cancer cells. In words: Alamar Blue proliferation assay, RWPE2. The series is classed as cell-based, human. As to conditions: 30 nM, normalized to negative control miRNA (100% proliferation). The text has this: The inventors assessed the therapeutic effect of hsa-miR-126 for prostate cancer by using 4 individual human prostate cancer cell lines. To measure cellular proliferation of prostate cancer cells, the following prostate cancer cell lines were used: PPC-1, derived from a bone metastasis; Du145, derived from a brain metastasis; RWPE2, derived from prostate cells immortalized by human papillomavirus 18 and transformed by the K-RAS oncogene; and LNCaP, derived from a lymph node metastasis (Stone et al., 1978; Horoszewicz et al., 1980; Brothman et al., 1991; Pretlow et al., 1993; Bello et al., 1997). PPC-1 and Du145 cells lack expression of the prostate-specific antigen (PSA) and are independent of androgen receptor (AR) signaling. In contrast, RWPE2 and LNCaP cells test positive for PSA and AR. Cells were transfected with synthetic hsa-miR-126 (Pre-miR™-hsa-miR-126, Ambion cat. no. AM 17100) or negative control miRNA (NC; Pre-miR™ microRNA Precursor Molecule-Negative Control #2; Ambion cat. no. AM17111) in a 96-well format using a lipid-based transfection reagent. […] Proliferation was assessed 4-7 days post-transfection using Alamar Blue™ (Invitrogen) following the manufacturer's instructions. […] Fluorescent light units (FLU) were measured after 3 hours, normalized to the control, and plotted as percent change in proliferation. […]
In general terms: Alamar Blue is a resazurin reagent that responds to reducing activity.

Here are results for one substance from patent US20090131354A1, “miR-126 REGULATED GENES AND PATHWAYS AS TARGETS FOR THERAPEUTIC INTERVENTION” (priority 2007, published 2009).

For “hsa-miR-126 (UCGUACCGUGAGUAAUAAUGC; synthetic pre-miR form, further chemistry not given here) [Synthetic hsa-miR-126 (Pre-miR™-hsa-miR-126, Ambion cat. no. AM17100)]”, the figures for the “% proliferation” value in series [1] and in series [3] were 66.89% and 91.82%, respectively. Moreover, in series [2], the “growth of established tumors” value is recorded as “robustly inhibited growth of established H460 lung tumors”.
